Literature values, collected in patent US20070072904A1, “PPAR active compounds” (priority 2005, published 2007).

Columns and labels:
[1] = target: T1, murine PPARα (Mus musculus, UniProt P23204)
T1 sequence (P23204 1-468): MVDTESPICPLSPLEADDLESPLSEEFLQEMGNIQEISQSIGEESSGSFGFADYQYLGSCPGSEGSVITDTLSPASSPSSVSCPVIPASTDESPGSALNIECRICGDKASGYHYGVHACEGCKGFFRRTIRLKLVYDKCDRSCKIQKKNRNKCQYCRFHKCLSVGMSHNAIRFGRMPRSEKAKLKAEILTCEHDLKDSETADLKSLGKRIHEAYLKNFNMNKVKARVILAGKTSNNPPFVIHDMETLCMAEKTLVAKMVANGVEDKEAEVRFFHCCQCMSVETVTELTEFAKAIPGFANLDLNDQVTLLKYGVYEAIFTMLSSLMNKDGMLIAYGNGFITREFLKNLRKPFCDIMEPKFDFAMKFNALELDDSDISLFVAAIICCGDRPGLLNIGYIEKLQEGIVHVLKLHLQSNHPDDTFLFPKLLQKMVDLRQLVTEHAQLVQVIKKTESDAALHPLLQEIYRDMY

[2] = target: T2, PPARδ (Homo sapiens, UniProt Q03181)
T2 sequence (Q03181 1-441): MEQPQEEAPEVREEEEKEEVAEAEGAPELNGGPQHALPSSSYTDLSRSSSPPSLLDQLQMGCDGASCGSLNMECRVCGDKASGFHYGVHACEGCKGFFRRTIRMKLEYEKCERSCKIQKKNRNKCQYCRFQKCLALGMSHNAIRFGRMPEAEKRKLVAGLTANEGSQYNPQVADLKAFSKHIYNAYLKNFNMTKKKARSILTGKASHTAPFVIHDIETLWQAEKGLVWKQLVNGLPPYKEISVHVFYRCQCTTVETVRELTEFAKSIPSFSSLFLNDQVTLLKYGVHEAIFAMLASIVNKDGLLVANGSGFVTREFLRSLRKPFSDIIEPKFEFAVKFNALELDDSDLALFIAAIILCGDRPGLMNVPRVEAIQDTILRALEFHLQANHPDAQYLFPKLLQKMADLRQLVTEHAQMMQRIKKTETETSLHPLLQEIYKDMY

[3] = recent large prospective trial

| activity on murine PPARα [1] | agonist selectivity for PPARδ over PPARγ [2] | SMILES | reduction in cardiovascular events or death [3] [%] |
| --- | --- | --- | --- |
| inactive | approximately 30 fold | CCCc1c(OCCCOc2ccc(OCC(=O)O)cc2)ccc(C(C)=O)c1O [Compound L-165041] | – |
| – | – | Cc1ccc(C)c(OCCCC(C)(C)C(=O)O)c1 [gemfibrozil] | 22 |
